In patent US20190275033A1 (Boehringer Ingelheim International GmbH, priority 2016, published 2019):
Entries after “also recorded” stand apart in the source; their conditions may differ.

Tests used:
PDGFR-β = biological target: T1, PDGFR-β (Homo sapiens, UniProt P09619); details: normal human lung fibroblasts in vitro; cited from earlier work
T1 construct: endogenous in cells; host or cells: normal human lung fibroblasts

[1] = tested on: vascular endothelial growth factor receptors (VEGFRs); details: preclinical studies; cited from earlier work
patients with IPF = details: cited from earlier work
[2] = tested on: fibroblast growth factor receptors (FGFRs); details: preclinical studies; cited from earlier work
[3] = cited from earlier work
[4] = tested on: bleomycin-induced skin fibrosis in mice; details: therapeutic nintedanib treatment; cited from earlier work
human lung fibroblasts = details: cited from earlier work
[5] = tested on: animal models of SSc and SSc-ILD; test: Four animal models of SSc and SSc-ILD; format: in vivo
[6] = preclinical studies; cited from earlier work
[7] = tested on: Rheumatoid arthritis and lung fibrosis in SKG mice; test: Rheumatoid arthritis and lung fibrosis in zymosan-stimulated SKG mice (RA-ILD model)
Source text: Whether this inflammation is helpful to resolve the fibrosis or detrimental remains open.
INTRODUCTION: Rheumatoid arthritis preferentially affects women and approximately […] of patients have lung abnormalities and involvement. From this group approximately 20% will develop rheumatoid arthritis-associated interstitial lung disease (RA-ILD).
RATIONALE: SKG mice, genetically prone to develop autoimmune arthritis, also develop a pulmonary interstitial pneumonia that resembles human cellular and fibrotic non-specific interstitial pneumonia.
Inflammation in the lungs was measured by BAL (bronchoalveolar lavage) cellularity and in enzymatically-digested lungs. Arthritis of joints and digits was scored weekly.

[8] = tested on: Bleomycin-induced lung fibrosis in mice; test: Bleomycin-induced lung fibrosis in mice; format: in vivo
[9] = tested on: Skin and lung fibrosis in transgenic Fra-2 mice; test: Skin and lung fibrosis in transgenic Fra-2 mice (genetic model of SSc-ILD); format: in vivo
Source text: Data are shown in Huang et al., Ann. Rheum. Dis. […] Clin. Pract. Rheumatol. 2006; 1:134-44.

[10] = tested on: dermal fibroblasts from patients with SSc; test: Dermal fibroblasts from patients with SSc; format: cell-based, human
[11] = tested on: Silica-induced lung fibrosis in mice; test: Silica-induced lung fibrosis in mice; format: in vivo
[12] = tested on: primary human lung fibroblasts from IPF patients; test: Fibroblast to myofibroblast transformation of human lung fibroblasts; format: cell-based
Source text: Nintedanib also attenuated the transformation of lung fibroblasts to myofibroblasts. Fibroblast proliferation, migration and transformation are fundamental processes in the common final path of several diseases resulting in lung fibrosis such as IPF but also SSc-ILD and RA-ILD.

[13] = tested on: platelet-derived growth factor receptors (PDGFRs); details: preclinical studies; cited from earlier work
[14] = tested on: Bleomycin-induced lung fibrosis in rats; test: Bleomycin-induced lung fibrosis in rats; format: in vivo
mouse models of IPF = details: in vivo; cited from earlier work
[15] = human lung fibroblasts from patients with IPF and control donors
[16] = early treatment, developing lung disease
[17] = early treatment, from week 5 after zymosan
[18] = late treatment, week 16, vs saline

T1 sequence (P09619 33-1106): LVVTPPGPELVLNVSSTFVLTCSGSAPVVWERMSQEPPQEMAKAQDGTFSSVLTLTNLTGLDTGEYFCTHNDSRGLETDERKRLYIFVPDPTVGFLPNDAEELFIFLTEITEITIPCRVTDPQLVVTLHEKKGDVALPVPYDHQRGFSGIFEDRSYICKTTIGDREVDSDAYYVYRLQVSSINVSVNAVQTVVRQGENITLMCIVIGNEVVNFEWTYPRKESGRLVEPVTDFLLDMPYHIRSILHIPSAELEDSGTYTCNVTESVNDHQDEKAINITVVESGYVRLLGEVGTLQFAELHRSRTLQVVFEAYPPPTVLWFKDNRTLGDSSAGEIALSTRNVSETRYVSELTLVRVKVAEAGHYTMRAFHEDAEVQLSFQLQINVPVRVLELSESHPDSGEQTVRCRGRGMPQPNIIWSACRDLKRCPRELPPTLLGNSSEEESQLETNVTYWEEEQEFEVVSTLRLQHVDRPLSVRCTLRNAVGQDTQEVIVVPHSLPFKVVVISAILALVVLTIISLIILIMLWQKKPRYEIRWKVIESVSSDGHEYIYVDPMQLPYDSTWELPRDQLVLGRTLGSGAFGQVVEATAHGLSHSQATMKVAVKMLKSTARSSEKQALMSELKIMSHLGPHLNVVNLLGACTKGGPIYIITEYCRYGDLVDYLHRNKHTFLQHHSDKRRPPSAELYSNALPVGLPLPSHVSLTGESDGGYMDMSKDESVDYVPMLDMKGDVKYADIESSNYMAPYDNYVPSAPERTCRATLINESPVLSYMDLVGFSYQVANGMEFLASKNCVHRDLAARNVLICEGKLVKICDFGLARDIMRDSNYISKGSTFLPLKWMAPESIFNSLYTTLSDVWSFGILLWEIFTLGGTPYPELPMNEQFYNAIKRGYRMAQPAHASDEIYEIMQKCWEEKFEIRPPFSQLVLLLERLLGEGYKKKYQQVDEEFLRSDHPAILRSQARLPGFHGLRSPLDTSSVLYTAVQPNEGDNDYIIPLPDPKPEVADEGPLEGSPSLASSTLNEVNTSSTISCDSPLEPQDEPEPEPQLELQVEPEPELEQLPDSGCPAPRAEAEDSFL

In the case of `COC(=O)c1ccc2c(c1)NC(=O)/C2=C(\Nc1ccc(N(C)C(=O)CN2CCN(C)CC2)cc1)c1ccccc1` [nintedanib, 3-Z-[1-(4-(N-((4-methyl-piperazin-1-yl)-methylcarbonyl)-N-methyl-amino)-anilino)-1-phenyl-methylene]-6-methoxycarbonyl-2-indolinone], the PDGFR-β activation (PDGFR-β) is listed as “inhibit”, the “inhibition of VEGFRs” value [1] is listed as “highly potent” and the efficacy versus placebo (patients with IPF; INPULSIS and TOMORROW trials, 150 mg twice daily) is listed as “positive results”. The “reduction of the annual rate of decline in FVC (mL/year)” value (patients with IPF; both INPULSIS trials, 150 mg twice daily versus placebo) was “approximately 50%”, the “inhibition of FGFRs” value [2] was “highly potent” and the “elimination via biliary/faecal excretion” value ([3]; human, in vivo) was > 90%. For the same compound, the exposure ([3]; patients with hepatic impairment (Child Pugh A, Child Pugh B)) was “increased”, the bleomycin-induced skin fibrosis [4] was “attenuation” and the “proliferation of human lung fibroblasts from patients with IPF” value (human lung fibroblasts) was “inhibited”. The FGF-2-induced proliferation (human lung fibroblasts; [15]) was “inhibit”, the VEGF-induced proliferation (human lung fibroblasts; [15]) was “inhibit” and the “proliferation of normal human lung fibroblasts” value (human lung fibroblasts; in vitro) was “inhibit”. For the same compound, the “number of vascular smooth muscle cells” value ([5]; an animal model of SSc) was “reducing”, the occluded pulmonary vessels ([5]; an animal model of SSc) was “reducing” and the pulmonary vascular remodelling ([5]; an animal model of SSc) was “effectively attenuated”. The Lung fibrosis ([5]; in vivo) was “effectively attenuated”, the “dermal microvascular endothelial cell apoptosis” value ([5]; in vivo) was “reduced” and the dermal thickening ([5]; in vivo) was “reduced”. For the same compound, the “extracellular matrix deposition in skin and lung” value ([5]; in vivo) was “reduced”, the “myofibroblast accumulation in skin and lung” value ([5]; in vivo) was “attenuated” and the skin fibrosis ([5]; in vivo) was “effectively attenuated”. For the same compound, the oral bioavailability [6] was “orally bioavailable”, the “inflammation in the lung” value ([7]; SKG mice treated with zymosan) was “slight but selective inflammation” and the Arthritic score ([7]; early treatment) was “score↓”. For the same compound, the “Lung tissue B220 + B-cells” value ([7]; early treatment) was “B-cells↑”, the “Lung tissue CD103 + Dendritic cells” value ([7]; early treatment) was “cells↑” and the “Lung tissue Monocytes” value ([7]; early treatment) was “Monocytes↓”. For the same compound, the “Lung tissue Neutrophils” value ([7]; early treatment) was “Neutrophils↑”, the static lung compliance ([7]; early treatment) was “ance↑” and the “lymphocytes in the BAL” value [7, 16] was “trend towards increased”. For the same compound, the “neutrophils in the BAL” value [7, 16] was “trend towards increased”, the “total number of alveolar macrophages” value ([7]; early treatment, developing lung disease, vs saline) was “no significant difference” and the “lung collagen deposition (hydroxyproline)” value [7, 17] was “no effect; also recorded: not significantly altered”. The “static lung compliance (lung function)” value [7, 17] was “improved lung function; also recorded: increase in static lung compliance”, the “arthritis score / joint swelling” value ([7]; early treatment, from week 5 after zymosan (week 5-11), 60 mg/kg daily gavage, vs saline, 60 mg/kg) was “attenuated arthritis pathology; also recorded: significant reduction in their development of arthritis; also recorded: significantly reduced; also recorded: reversal of joint swelling” and the “lung collagen (hydroxyproline) / pulmonary fibrosis” value ([7]; late (therapeutic) treatment for six weeks, established arthritis) was “reduction of collagen deposition; also recorded: significant reduction of lung collagen; also recorded: significantly reduces; also recorded: significant decrease”. For the same compound, the “BAL lymphocytes and neutrophils” value ([7]; late treatment) was “neutrophils↑”, the Lung hydroxiproline ([7]; late treatment) was “hydroxiproline↓” and the “Lung tissue inflammatory macrophages” value ([7]; late treatment) was “macrophages↑”. For the same compound, the static lung compliance ([7]; late treatment, established lung disease) was “no significant difference”, the “arthritis score / joint swelling” value ([7]; late treatment, from week 10 after zymosan (week 10-16), established disease, vs saline) was “reduction of the arthritis score if the score was normalized to the last measurement before the start of the nintedanib treatment; also recorded: not altered; also recorded: slightly increased the resolution of joint swelling” and the “alveolar macrophages (BAL)” value ([7]; late treatment, vs saline) was “no significant difference”. The “number of lymphocytes (BAL)” value ([7]; late treatment, vs saline) was “small but significant elevation”, the “number of neutrophils (BAL)” value ([7]; late treatment, vs saline) was “small but significant elevation” and the “total number of BAL cells” value ([7]; late treatment, vs saline) was “no significant difference”. For the same compound, the percent survival [7, 18] was “no significant change”, the weight [7, 18] was “no significant change” and the Arthritic score ([7]; late treatment, if the data is normalised to the last scoring before the nintedanib treatment starts) was “score↓*”. For the same compound, the “B220+ B-cells” value ([7]; lungs, six weeks of nintedanib) was “small but significant increase”, the “CD4+ T-cells” value ([7]; lungs, six weeks of nintedanib) was “small but significant increase” and the macrophage numbers ([7]; lungs, six weeks of nintedanib) was “no changes”. For the same compound, the lung dendritic cells ([7]; nintedanib beginning at week 5) was “significant increase”, the lung neutrophils ([7]; nintedanib beginning at week 5) was “significant increase” and the “increase in lung neutrophils” value ([7]; nintedanib beginning at week 11) was “not at week 11”. The BALF lymphocytes ([8]; preventive treatment) was “cytes↓”, the IL-1β ([8]; preventive treatment) was “IL-1β↓” and the Lung fibrosis ([8]; preventive treatment) was “fibrosis↓”. For the same compound, the Lung inflammation ([8]; preventive treatment) was “mation↓”, the TIMP-1 ([8]; preventive treatment) was “TIMP-1↓” and the BALF lymphocytes ([8]; therapeutic treatment) was “cytes↓”. For the same compound, the IL-1β ([8]; therapeutic treatment) was “IL-1β↓”, the Lung collgen ([8]; therapeutic treatment) was “collgen↓” and the Lung fibrosis ([8]; therapeutic treatment) was “fibrosis↓”. For the same compound, the Lung inflammation ([8]; therapeutic treatment) was “mation↓”, the TIMP-1 ([8]; therapeutic treatment) was “TIMP-1↓” and the Lung fibrosis ([9]; Fra2+/− mice) was “normalises”. The lung vascular remodelling ([9]; Fra2+/− mice) was “normalises”, the skin fibrosis ([9]; Fra2+/− mice) was “normalises” and the Dermal thickness ([9]; therapeutic treatment) was “thickness↓”. For the same compound, the ECM ([9]; therapeutic treatment) was “ECM↓”, the Hydroxiproline ([9]; therapeutic treatment) was “Hydroxiproline↓” and the MVEC apoptosis ([9]; therapeutic treatment) was “apoptosis↑”. The Occluded vessels ([9]; therapeutic treatment) was “vessels↓”, the “Skin and lung myofibroblast count” value ([9]; therapeutic treatment) was “count↓” and the VSMC ([9]; therapeutic treatment) was “VSMC↓”. For the same compound, the Vessel wall thickness ([9]; therapeutic treatment) was “thickness↓”, the “expression of extracellular matrix markers” value [10] was “reduced” and the migration [10] was “inhibited”. For the same compound, the proliferation [10] was “inhibited”, the transformation to myofibroblast [10] was “attenuated” and the “BALF neutrophils + lymphocytes” value ([11]; preventive treatment) was “cytes↓”. The IL-1β ([11]; preventive treatment) was “IL-1β↓”, the KC ([11]; preventive treatment) was “KC↓” and the Lung collagen ([11]; preventive treatment) was “collagen↓”. For the same compound, the Lung fibrosis ([11]; preventive treatment) was “fibrosis↓”, the Lung inflammation ([11]; preventive treatment) was “mation↓” and the TIMP-1 ([11]; preventive treatment) was “TIMP-1↓”. The “BALF neutrophils + lymphocytes” value ([11]; therapeutic treatment) was “cytes↓”, the IL-1β ([11]; therapeutic treatment) was “IL-1β↓” and the IL-6 ([11]; therapeutic treatment) was “IL-6↓”. The KC ([11]; therapeutic treatment) was “KC↓”, the Lung collagen ([11]; therapeutic treatment) was “collagen↓” and the Lung fibrosis ([11]; therapeutic treatment) was “fibrosis↓”. The Lung inflammation ([11]; therapeutic treatment) was “mation↓”, the TIMP-1 ([11]; therapeutic treatment) was “TIMP-1↓” and the “transformation of lung fibroblasts to myofibroblasts” value [12] was “attenuated”. The “inhibition of PDGFRs” value [13] was “highly potent”, the “Lung fibrosis (Ashcroft score)” value ([14]; preventive treatment) was “score)↓” and the “Lung fibrosis (Ashcroft score)” value ([14]; therapeutic treatment) was “score)↓”. The “fibrosis in histological analyses” value (mouse models of IPF) was “reduced”, the “granuloma formation in histological analysis of lung tissue” value (mouse models of IPF) was “reduced” and the “inflammation in histological analysis of lung tissue” value (mouse models of IPF) was “reduced”. The inflammatory cytokines (mouse models of IPF) was “reductions”, the “lymphocyte counts in the bronchoalveolar lavage fluid” value (mouse models of IPF) was “significant reductions” and the “neutrophil counts in the bronchoalveolar lavage fluid” value (mouse models of IPF) was “significant reductions”. For the same compound, the total lung collagen (mouse models of IPF) was “significant reductions”.
